# Patent US11053204B2, “Pyrimidinyloxy benzene derivatives as herbicides” (FMC Corporation, priority 2015, dated 2021)
# Key:
# Format in all cases: in vivo
# [1] = tested on: oat, wild (wild oat Avena fatua); experiment: Test C preemergence, plant response rating
# [2] = tested on: johnsongrass (Sorghum halepense); experiment: Test C preemergence, plant response rating
# [3] = tested on: windgrass (Apera spica-venti); experiment: Test C preemergence, plant response rating
# [4] = tested on: wild poinsettia (Euphorbia heterophylla); experiment: Test C preemergence, plant response rating
# [5] = tested on: galium (catchweed bedstraw, Galium aparine); experiment: Test C preemergence, plant response rating
# [6] = tested on: surinam grass (Brachiaria decumbens); experiment: Test C postemergence, plant response rating
# Outline: (§1)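 Visual injury score, 0 = no effect, 100 = complete control, assigned against untreated controls after 13 to 15 d in the greenhouse. Compounds were applied in a surfactant-containing non-phytotoxic solvent mix, preemergence to seeded loam/sand or silt loam soil, or postemergence to 1- to 4-leaf plants (2 to 18 cm).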
# [7] = tested on: buckwheat, wild (wild buckwheat, Polygonum convolvulus); experiment: Test C postemergence, plant response rating; details: for Buckwheat, Wild plant response rating: scale 0 to 100 (0 no effect, 100 complete control)
# Outline: as §1
# [8] = tested on: Canada thistle (Cirsium arvense); experiment: Test C postemergence, plant response rating; details: for Canada Thistle plant response rating: scale 0 to 100 (0 no effect, 100 complete control)
# Outline: as §1
# [9] = tested on: wild poinsettia (Euphorbia heterophylla); experiment: Test C postemergence, plant response rating; details: for Poinsettia, Wild plant response rating: scale 0 to 100 (0 no effect, 100 complete control)
# Outline: as §1
# [10] = tested on: field poppy (Papaver rhoeas); experiment: Test C postemergence, plant response rating; details: for Field Poppy plant response rating: scale 0 to 100 (0 no effect, 100 complete control)
# Outline: as §1
# [11] = tested on: field violet (Viola arvensis); experiment: Test C postemergence, plant response rating; details: for Field Violet plant response rating: scale 0 to 100 (0 no effect, 100 complete control)
# Outline: as §1
# [12] = tested on: geranium, cutleaf (cutleaf geranium, Geranium dissectum); experiment: Test C postemergence, plant response rating; details: for Geranium, Cutleaf plant response rating: scale 0 to 100 (0 no effect, 100 complete control)
# Outline: as §1
# [13] = tested on: speedwell (bird's-eye speedwell, Veronica persica); experiment: Test C postemergence, plant response rating; details: for Speedwell plant response rating: scale 0 to 100 (0 no effect, 100 complete control)
# Outline: as §1
# [14] = tested on: windgrass (Apera spica-venti); experiment: Test C postemergence, plant response rating
# Outline: as §1
# [15] = tested on: johnsongrass (Sorghum halepense); experiment: Test C postemergence, plant response rating; details: for Johnsongrass plant response rating: scale 0 to 100 (0 no effect, 100 complete control)
# Outline: as §1
# [16] = tested on: pigweed, palmer (palmer pigweed, Amaranthus palmeri); experiment: Test C postemergence, plant response rating; details: for Pigweed, Palmer plant response rating: scale 0 to 100 (0 no effect, 100 complete control)
# Outline: as §1
# [17] = tested on: nightshade (eastern black nightshade, Solanum ptycanthum); experiment: Test C postemergence, plant response rating; details: for Nightshade plant response rating: scale 0 to 100 (0 no effect, 100 complete control)
# Outline: as §1
# [18] = 125 g ai/ha, scale 0 to 100 (0 no effect, 100 complete control)
compound,measurement,setting,value
O=C(CCCC(F)(F)F)c1c(Cl)cccc1Oc1ncc(Cl)cn1 [Compound 143],"Plant response rating, Oat, Wild","[1]; 31 g ai/ha, scale 0 to 100",0
same,"Plant response rating, Oat, Wild","[1]; 62 g ai/ha, scale 0 to 100",5
same,"Plant response rating, Oat, Wild","[1]; 125 g ai/ha, scale of 0 to 100",5
same,"Plant response rating, Johnsongrass","[2]; 31 g ai/ha, scale 0 to 100",25
same,"Plant response rating, Johnsongrass","[2]; 62 g ai/ha, scale 0 to 100",50
same,"Plant response rating, Johnsongrass","[2]; 125 g ai/ha, scale of 0 to 100",80
same,"Plant response rating, Windgrass","[3]; 31 g ai/ha, scale 0 to 100",85
same,"Plant response rating, Windgrass","[3]; 62 g ai/ha, scale 0 to 100",100
same,"Plant response rating, Windgrass","[3]; 125 g ai/ha, scale of 0 to 100",100
same,"Plant response rating, Poinsettia, Wild","[4]; 31 g ai/ha, scale 0 to 100",5
same,"Plant response rating, Poinsettia, Wild","[4]; 62 g ai/ha, scale 0 to 100",20
same,"Plant response rating, Poinsettia, Wild","[4]; 125 g ai/ha, scale of 0 to 100",25
same,"Plant response rating, Galium","[5]; 31 g ai/ha, scale 0 to 100",30
same,"Plant response rating, Galium","[5]; 62 g ai/ha, scale 0 to 100",80
same,"Plant response rating, Galium","[5]; 125 g ai/ha, scale of 0 to 100",80
same,"Plant response rating, Surinam Grass","[6]; 16 g ai/ha, scale of 0 to 100",5
same,"Plant response rating, Surinam Grass","[6]; 31 g ai/ha, scale 0 to 100",10
same,Surinam Grass plant response rating,[6]; [18],20
same,"Plant response rating, Buckwheat, Wild","[7]; 16 g ai/ha, scale of 0 to 100",75
same,"Plant response rating, Buckwheat, Wild","[7]; 31 g ai/ha, scale 0 to 100",85
same,"Buckwheat, Wild plant response rating",[7]; 62 g ai/ha,100
same,"Buckwheat, Wild plant response rating",[7]; 125 g ai/ha,100
same,"Plant response rating, Canada Thistle","[8]; 16 g ai/ha, scale of 0 to 100",85
same,"Plant response rating, Canada Thistle","[8]; 31 g ai/ha, scale 0 to 100",85
same,Canada Thistle plant response rating,[8]; 62 g ai/ha,90
same,Canada Thistle plant response rating,[8]; 125 g ai/ha,100
same,"Plant response rating, Poinsettia, Wild","[9]; 16 g ai/ha, scale of 0 to 100",55
same,"Plant response rating, Poinsettia, Wild","[9]; 31 g ai/ha, scale 0 to 100",65
same,"Poinsettia, Wild plant response rating",[9]; 62 g ai/ha,70
same,"Poinsettia, Wild plant response rating",[9]; 125 g ai/ha,75
same,"Plant response rating, Field Poppy","[10]; 16 g ai/ha, scale of 0 to 100",80
same,"Plant response rating, Field Poppy","[10]; 31 g ai/ha, scale 0 to 100",90
same,Field Poppy plant response rating,[10]; 62 g ai/ha,90
same,Field Poppy plant response rating,[10]; 125 g ai/ha,100
same,"Plant response rating, Field Violet","[11]; 16 g ai/ha, scale of 0 to 100",75
same,"Plant response rating, Field Violet","[11]; 31 g ai/ha, scale 0 to 100",80
same,Field Violet plant response rating,[11]; 62 g ai/ha,98
same,Field Violet plant response rating,[11]; 125 g ai/ha,100
same,"Plant response rating, Geranium, Cutleaf","[12]; 16 g ai/ha, scale of 0 to 100",30
same,"Plant response rating, Geranium, Cutleaf","[12]; 31 g ai/ha, scale 0 to 100",50
same,"Geranium, Cutleaf plant response rating",[12]; 62 g ai/ha,60
same,"Geranium, Cutleaf plant response rating",[12]; 125 g ai/ha,75
same,"Plant response rating, Speedwell","[13]; 16 g ai/ha, scale of 0 to 100",80
same,"Plant response rating, Speedwell","[13]; 31 g ai/ha, scale 0 to 100",80
same,Speedwell plant response rating,[13]; 62 g ai/ha,85
same,Speedwell plant response rating,[13]; 125 g ai/ha,100
same,"Plant response rating, Windgrass","[14]; 16 g ai/ha, scale of 0 to 100",30
same,"Plant response rating, Windgrass","[14]; 31 g ai/ha, scale 0 to 100",35
same,Windgrass plant response rating,[14]; [18],40
same,"Plant response rating, Johnsongrass","[15]; 16 g ai/ha, scale of 0 to 100",5
same,"Plant response rating, Johnsongrass","[15]; 31 g ai/ha, scale 0 to 100",5
same,Johnsongrass plant response rating,[15]; 62 g ai/ha,10
same,Johnsongrass plant response rating,[15]; 125 g ai/ha,20
same,"Plant response rating, Pigweed, Palmer","[16]; 16 g ai/ha, scale of 0 to 100",45
same,"Plant response rating, Pigweed, Palmer","[16]; 31 g ai/ha, scale 0 to 100",75
same,"Pigweed, Palmer plant response rating",[16]; 62 g ai/ha,80
same,"Pigweed, Palmer plant response rating",[16]; 125 g ai/ha,100
same,"Plant response rating, Nightshade","[17]; 16 g ai/ha, scale of 0 to 100",65
same,"Plant response rating, Nightshade","[17]; 31 g ai/ha, scale 0 to 100",85
same,Nightshade plant response rating,[17]; 62 g ai/ha,90
same,Nightshade plant response rating,[17]; 125 g ai/ha,90
